# Read-outs that look alike come from different tables or passages of the source.
# Tests used:
# human α1A‐adrenoceptor [1] = target: T1, human α1A‐adrenoceptor (Homo sapiens, UniProt P35348); test: ^3H‐prazosin whole‐cell radioligand binding, CHO‐α1A cells; settings: for Log KD α1A, ^3H‐prazosin whole cell binding: given as log KD (negative), mean ± SEM; for Affinity selectivity ratio α1A vs α1D: higher affinity for α1A than α1D
# T1 construct: expressed in transfected cells; host or cells: CHO-K1
# T1 sequence (P35348 1-466): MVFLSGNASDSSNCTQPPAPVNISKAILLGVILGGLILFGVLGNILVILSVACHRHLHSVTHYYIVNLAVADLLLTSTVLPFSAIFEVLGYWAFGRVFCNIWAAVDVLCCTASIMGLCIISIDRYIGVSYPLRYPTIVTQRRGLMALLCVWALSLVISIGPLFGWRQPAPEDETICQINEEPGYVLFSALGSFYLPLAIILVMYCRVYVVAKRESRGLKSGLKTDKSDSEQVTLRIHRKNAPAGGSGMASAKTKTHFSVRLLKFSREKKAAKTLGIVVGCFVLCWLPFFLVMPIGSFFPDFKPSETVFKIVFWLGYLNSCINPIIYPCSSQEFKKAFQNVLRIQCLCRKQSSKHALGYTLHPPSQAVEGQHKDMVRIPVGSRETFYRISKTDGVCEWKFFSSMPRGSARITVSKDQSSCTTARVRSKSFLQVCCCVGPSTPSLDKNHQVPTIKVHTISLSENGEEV
# [2] = target: T2, human α1D‐adrenoceptor (full length) (Homo sapiens, UniProt P25100); test: ^3H‐prazosin whole‐cell radioligand binding, CHO‐α1D cells; settings: for 3H‐prazosin binding Log KD: whole‐cell binding (from Table 1), log values given negative; for Log KD α1D, ^3H‐prazosin whole cell binding: given as log KD (negative), mean ± SEM, 'early plateau' = specific binding not fully inhibited
# T2 construct: human α1D‐adrenoceptor (full length) were used; expressed in transfected cells; host or cells: CHO-K1
# T2 sequence (P25100 1-572): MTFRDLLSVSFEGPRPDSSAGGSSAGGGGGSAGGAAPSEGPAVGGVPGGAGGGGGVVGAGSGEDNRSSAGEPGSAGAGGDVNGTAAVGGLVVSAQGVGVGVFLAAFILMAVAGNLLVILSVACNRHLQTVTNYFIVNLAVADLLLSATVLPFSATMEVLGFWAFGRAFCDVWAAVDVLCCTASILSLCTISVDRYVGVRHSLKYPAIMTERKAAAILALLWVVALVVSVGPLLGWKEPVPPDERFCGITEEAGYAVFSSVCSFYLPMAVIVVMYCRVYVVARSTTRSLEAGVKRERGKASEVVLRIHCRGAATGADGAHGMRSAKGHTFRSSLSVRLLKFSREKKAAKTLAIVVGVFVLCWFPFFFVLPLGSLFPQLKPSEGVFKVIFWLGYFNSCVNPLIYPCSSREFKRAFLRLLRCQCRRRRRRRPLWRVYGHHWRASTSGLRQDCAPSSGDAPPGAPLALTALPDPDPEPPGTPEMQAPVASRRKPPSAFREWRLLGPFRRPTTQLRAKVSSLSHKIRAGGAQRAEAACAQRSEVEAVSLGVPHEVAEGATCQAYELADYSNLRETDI
# human α1A‐adrenoceptor [3] = target: T1, human α1A‐adrenoceptor; test: Intracellular free calcium mobilization, CHO‐α1A cells; type: cell-based; settings: for Intracellular calcium release % ionomycin at 10 µM: response at 10 μM ligand
# human α1B‐adrenoceptor [4] = target: T3, human α1B‐adrenoceptor (Homo sapiens, UniProt P35368); test: Intracellular free calcium mobilization, CHO‐α1B cells; type: cell-based; settings: for Intracellular calcium release % ionomycin: maximal response as % of 10 µM ionomycin response
# T3 construct: expressed in transfected cells; host or cells: CHO-K1
# T3 sequence (P35368 1-520): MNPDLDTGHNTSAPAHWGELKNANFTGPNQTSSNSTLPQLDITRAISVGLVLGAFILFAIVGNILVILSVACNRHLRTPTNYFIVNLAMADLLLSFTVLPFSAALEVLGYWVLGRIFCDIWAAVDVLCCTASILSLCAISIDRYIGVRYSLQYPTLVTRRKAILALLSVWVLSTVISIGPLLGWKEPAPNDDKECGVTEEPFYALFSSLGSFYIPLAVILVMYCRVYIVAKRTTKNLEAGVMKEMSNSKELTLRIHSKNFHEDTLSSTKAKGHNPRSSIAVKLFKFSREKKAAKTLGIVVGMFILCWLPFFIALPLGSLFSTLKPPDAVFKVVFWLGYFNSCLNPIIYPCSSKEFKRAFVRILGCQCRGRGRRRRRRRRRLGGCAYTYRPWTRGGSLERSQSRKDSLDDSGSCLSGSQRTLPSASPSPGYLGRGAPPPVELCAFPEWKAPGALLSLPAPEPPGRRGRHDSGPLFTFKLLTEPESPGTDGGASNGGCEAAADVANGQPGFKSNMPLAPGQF
# [5] = target: T2, human α1D‐adrenoceptor (full length); test: Intracellular free calcium mobilization, CHO‐α1D cells; type: cell-based; settings: for Intracellular calcium release % ionomycin: maximal response as % of 10 µM ionomycin
# [6] = target: T2, human α1D‐adrenoceptor (full length); test: ERK1/2‐phosphorylation (Surefire Alphascreen), CHO‐α1D cells; type: cell-based; settings: for ERK1/2‐phosphorylation % PDBu at 10 µM: response at 10 µM ligand (no EC50 given)
# [7] = tested on: parental CHO cell line without any transfected receptors; test: ERK1/2‐phosphorylation, parent CHO cells without transfected receptors; type: cell-based, Chinese hamster; settings: for ERK1/2-phosphorylation % PDBu: maximal response as % of PDBu (10μM) response
# human α1B‐adrenoceptor [8] = target: T3, human α1B‐adrenoceptor; test: ^3H‐prazosin whole‐cell radioligand binding, CHO‐α1B cells; settings: for Log KD α1B, ^3H‐prazosin whole cell binding: given as log KD (negative), mean ± SEM
# human α1B‐adrenoceptor [9] = target: T3, human α1B‐adrenoceptor; test: ERK1/2‐phosphorylation (Surefire Alphascreen), CHO‐α1B cells; type: cell-based
# [10] = CHO cells without transfected receptors, mean ± s.e.m.
# [11] = higher affinity for α1A than α1B
# [12] = CHO‐α1B cells, whole‐cell binding (from Table 1), given as log KD (negative numbers)
# [13] = CHO‐α1D cells, log values given negative
# [14] = CHO‐α1D cells, maximal response as % of PDBu
# [15] = CHO‐α1B cells, given as log EC50 (negative numbers)
# [16] = higher affinity for α1D than α1B
# [17] = CHO‐α1A cells, no EC50 obtained
SMILES,"ERK1/2-phosphorylation % PDBu [7, 10]",Affinity selectivity ratio α1A vs α1B (human α1A‐adrenoceptor [1]; [11]) [fold],"Log KD, ^3H‐prazosin binding (human α1B‐adrenoceptor [8]; [12])","Log KD α1B, ^3H‐prazosin whole cell binding (human α1B‐adrenoceptor [8]; CHO‐α1B cells)",3H‐prazosin binding Log KD ([2]; CHO‐α1D cells),"Intracellular calcium release Log EC50 [5, 13]",Intracellular calcium release % ionomycin ([5]; CHO‐α1D cells),"ERK1/2‐phosphorylation Log EC50 [6, 13]","ERK1/2‐phosphorylation % PDBu [6, 14]","Log KD α1A, ^3H‐prazosin whole cell binding (human α1A‐adrenoceptor [1]; CHO‐α1A cells)","Log KD α1D, ^3H‐prazosin whole cell binding ([2]; CHO‐α1D cells)","ERK1/2-phosphorylation Log EC50 [7, 10]",further results
Cc1ccc(/N=C/N(C)/C=N/c2ccc(C)cc2C)c(C)c1 [Amitraz],No response,,,,,,,,,,,,Affinity selectivity ratio α1A vs α1B (human α1A‐adrenoceptor [1]): >33.1 fold; Affinity selectivity ratio α1B vs α1D [2]: >12.0 fold; Intracellular calcium release Log EC50 (human α1A‐adrenoceptor [3]): No response; Intracellular calcium release Log EC50 (human α1B‐adrenoceptor [4]): No response; Intracellular calcium release Log EC50 [5]: No response; ERK1/2‐phosphorylation % PDBu [6]: No response; ERK1/2‐phosphorylation Log EC50 [6]: No response; ERK1/2-phosphorylation Log EC50 [7]: No response
CCN1CCc2nc(N)oc2CC1 [BHT933],,>4.0,No binding,No binding,−3.70,No response,No response,No response,No response,,,,"Log KD α1A (apparent), ^3H‐prazosin whole cell binding (human α1A‐adrenoceptor [1]; CHO‐α1A cells, apparent KD: maximum concentration did not inhibit all specific binding, IC50 extrapolated): −3.60 ± 0.06^apparent; Log KD α1D (apparent), ^3H‐prazosin whole cell binding ([2]; CHO‐α1D cells, apparent KD: maximum concentration did not inhibit all specific binding, IC50 extrapolated): −3.70 ± 0.18^apparent; Affinity selectivity ratio α1A vs α1D ([2]; higher affinity for α1D than α1A): 1.3 fold; Intracellular calcium release % Ionomycin at 100 µM (human α1A‐adrenoceptor [3]; CHO‐α1A cells, response at 100 μM ligand, no EC50 obtained): 25.5 ± 3.7%; Intracellular calcium release % Ionomycin at 100 µM (human α1B‐adrenoceptor [4]; CHO‐α1B cells, response at 100 µM ligand (no EC50 given), % of ionomycin response): 16.6 ± 2.1%"
CN[C@@H](C)[C@H](O)c1ccccc1 [Epdedrine],,,,,,,,,,,,,Intracellular calcium release % Ionomycin at 100 µM (human α1B‐adrenoceptor [4]): 18.5 ± 2.9%; ERK1/2‐phosphorylation % PDBu (human α1B‐adrenoceptor [9]): 19.1 ± 4.0%; ERK1/2‐phosphorylation Log EC50 (human α1B‐adrenoceptor [9]): −4.67 ± 0.17
C[C@](N)(Cc1ccc(O)c(O)c1)C(=O)O [Methyldopa],No response,,No binding,No binding,,No response,No response,No response,No response,No binding,No binding,No response,"IC50 ([2]; CHO‐α1D cells, whole‐cell binding, given as IC50 > log value): > 100 µM; Intracellular calcium release Log EC50 (human α1A‐adrenoceptor [3]; CHO‐α1A cells, given as log EC50 (negative)): No response; Intracellular calcium release % ionomycin (human α1A‐adrenoceptor [3]; CHO‐α1A cells, maximal response as % of 10 µM ionomycin): No response; Intracellular calcium release Log EC50 (human α1B‐adrenoceptor [4]; [15]): No response; Intracellular calcium release % ionomycin (human α1B‐adrenoceptor [4]; CHO‐α1B cells): No response"
"CCCC(=O)O[C@@H]1[C@@H](C)[C@@]2(O)[C@@H](C=C(CO)C[C@]3(O)C(=O)C(C)=C[C@@H]23)[C@@H]2C(C)(C)[C@]12OC(=O)CCC [PDBu, Phorbol 12,13‐dibutyrate]",,,,,,,,,,,,,ERK1/2‐phosphorylation response fold over basal [7]: 7.5 ± 0.9 fold over basal
C1=C(c2cnc[nH]2)c2ccsc2CC1 [RWJ52353],No response,>190,,,−4.30,No response,No response,No response,No response,−5.28 ± 0.08,−4.30 ± 0.12,No response,"Affinity selectivity ratio α1A vs α1D (human α1A‐adrenoceptor [1]): 9.6 fold; Log IC50 α1B, ^3H‐prazosin whole cell binding (human α1B‐adrenoceptor [8]; CHO‐α1B cells, printed as IC50> log value): IC50 >−3; Affinity selectivity ratio α1B vs α1D [2, 16]: >20 fold; Intracellular calcium release % ionomycin at 10 µM (human α1A‐adrenoceptor [3]; [17]): 39.4 ± 2.4%; Intracellular calcium release % ionomycin at 10 µM (human α1B‐adrenoceptor [4]; CHO‐α1B cells, response at 10 µM ligand (no EC50 given), % of ionomycin response): 8.1 ± 3.1%"
c1ccc2c(c1)CCCC2C1=NCCN1 (stereo not shown) [Tetrohydrozoline],,,,,,,,,,,,,"Log KD, ^3H‐prazosin binding (human α1B‐adrenoceptor [8]): −5.22; Intracellular calcium release % Ionomycin at 100 µM (human α1B‐adrenoceptor [4]): 2.9 ± 1.4%; ERK1/2‐phosphorylation % PDBu (human α1B‐adrenoceptor [9]): No response; ERK1/2‐phosphorylation Log EC50 (human α1B‐adrenoceptor [9]): No response"
Cc1sc(C)c2c1CCC=C2c1cnc[nH]1.O=C(O)/C=C\C(=O)O [T‐CG 1000],,6.0,−5.18,−5.18 ± 0.06,−5.91,No response,No response,,,−5.96 ± 0.05,−5.91 ± 0.12,,"Affinity selectivity ratio α1A vs α1D (human α1A‐adrenoceptor [1]): 1.1 fold; Affinity selectivity ratio α1B vs α1D [2, 16]: 5.4 fold; Intracellular calcium release % ionomycin at 10 µM (human α1A‐adrenoceptor [3]; [17]): 21.0 ± 1.9%; Intracellular calcium release Log EC50 (human α1B‐adrenoceptor [4]; [15]): No response; Intracellular calcium release % ionomycin (human α1B‐adrenoceptor [4]; CHO‐α1B cells): No response; ERK1/2‐phosphorylation % PDBu at 10 µM ([6]; CHO‐α1D cells): 16.3 ± 5.9%"
O=C1Cc2cc(CCN3CCN(c4nsc5ccccc45)CC3)c(Cl)cc2N1 [Ziprasidone],,,,,,No response,No response,,,,,,ERK1/2‐phosphorylation % PDBu at 10 µM ([6]; CHO‐α1D cells): 4.6 ± 2.7%
O=C1Cc2cc(CCN3CCN(c4nsc5ccccc45)CC3)c(Cl)cc2N1 [ziprasidone],No response,,,,,,,,,,,No response,
